The nature of test [1]: Ratio of antiviral activity of HSV-2 to the ratio of cytotoxicity of Vero (EC50/CC50) against cytopathic effect inhibition assay in CEM cells; 59/>100. It counts as functional. Background: Damage to the host cells serves as the signal in cytopathic effect assays.
Test [2] in a line: Antiviral activity against HCMV (AD 169) in HFF cells against cytopathic effect inhibition assay; 1.0/303.
Test [3] in a line: Antiviral activity against EBV in Daudi cells (EC50) against viral capsid antigen immunofluorescence assay (VCA-IF); 3.2/368.
A short description of test [4]: Ratio of antiviral activity of VZV to the ratio of cytotoxicity of HFF (EC50/CC50) against cytopathic effect inhibition assay; 2.5/368. Format: functional.
Test [5] in a line: Ratio of antiviral activity of HSV-1 to the ratio of cytotoxicity of BSC-1 (EC50/CC50) against KB cells; 26/78. It counts as functional.
Test [6] can be described thus: Antiviral activity against HIV-1 in MT-2 cells (EC50) against cytopathic effect inhibition assay; 0.75/32.
The nature of test [7]: Ratio of antiviral activity of HSV-2 to the ratio of cytotoxicity of HFF (EC50/CC50) against cytopathic effect inhibition assay; 80/433. Format: functional.
Test [8] can be described thus: Ratio of antiviral activity of HSV-1 to the ratio of cytotoxicity of Vero (EC50/CC50) against cytopathic effect inhibition assay in CEM cells; 28/>100. It counts as functional.
Test [9] is described as follows: Antiviral activity against HBV in 2.2.15 cells (EC50) in HBV-DNA inhibition assay against CEM cells; 2/>100.
A short description of test [10]: Ratio of antiviral activity of HSV-1 to the ratio of cytotoxicity of HFF (EC50/CC50) against cytopathic effect inhibition assay; >92/433. Format: functional.
The nature of test [11]: Antiviral activity against HCMV (Towne) in HFF cells by plaque reduction assay. In general terms: Plaques are areas of infected cells; plaque reduction assays count them against a control.
Experiment in test [12]: as above
This is another data set of the same source.

The nature of test [13]: Ratio of antiviral activity of HBV to the ratio of cytotoxicity of 2.2.15 (EC50/CC50) in HBV-DNA inhibition assay against CEM cells; 0.01/0.3. Format: functional, CCRF-CEM.
Test [14] is described as follows: Antiviral activity against HIV-1 in MT-2 cells (EC50) against cytopathic effect inhibition assay; 0.003/0.24.
Test [15] in a line: Ratio of antiviral activity of HSV-1 to the ratio of cytotoxicity of Vero (EC50/CC50) against cytopathic effect inhibition assay in CEM cells; >1/<10. Format: functional.
Test [16] in a line: Ratio of antiviral activity of HSV-2 to the ratio of cytotoxicity of HFF (EC50/CC50) against cytopathic effect inhibition assay; 1.1/18. Format: functional.
The nature of test [17]: Antiviral activity against HCMV (AD 169) in HFF cells (EC50) against cytopathic effect inhibition assay.
Test [18] can be described thus: Ratio of antiviral activity of HSV-1 to the ratio of cytotoxicity of HFF (EC50/CC50) against cytopathic effect inhibition assay; <0.07/18. It counts as functional.
Test [19] has as its system HCT-15. In words: Antitumor activity against human HCT15 to multiple drug-resistant human colon tumor at 500 ug/disk in disk diffusion assay. It counts as functional. In general terms: A growth-free zone around the sample is the usual read-out of agar diffusion tests.
A short description of test [20]: Ratio of antiviral activity of VZV to the ratio of cytotoxicity of HFF (EC50/CC50) against cytopathic effect inhibition assay; 7.6/101. It counts as functional.
Test [21] can be described thus: Ratio of antiviral activity of HSV-1 to the ratio of cytotoxicity of BSC-1 (EC50/CC50) against KB cells; 2.5/0.5. It counts as functional.
Test [22] in a line: Antiviral activity against EBV in Daudi cells (EC50) against viral capsid antigen immunofluorescence assay (VCA-IF); 1.0/>108.
For test [23], the system named is HCT-15. Nature of the test: Antitumor activity against human HCT15 to multiple drug-resistant human colon tumor at 500 ug/disk in disk diffusion assay; Value ranges from 300-400. It counts as functional.
Test [24] in a line: Antiviral activity against HBV in 2.2.15 cells in HBV-DNA inhibition assay.
Test [25] is described as follows: Ratio of antiviral activity of HSV-1 to the ratio of cytotoxicity of Vero (EC50/CC50) against cytopathic effect inhibition assay in CEM cells; 31/91. It counts as functional.
The nature of test [26]: Ratio of antiviral activity of HSV-1 to the ratio of cytotoxicity of BSC-1 (EC50/CC50) against KB cells; 15/>100. It counts as functional.
The test system of another test is L1210. Nature of the test: Antitumor activity against leukemia L1210 at 500 ug/disk in disk diffusion assay. It counts as functional, Mus musculus.
Test [27] is described as follows: Antiviral activity against EBV in Daudi cells against viral capsid antigen immunofluorescence assay (VCA-IF).
Test [28] in a line: Antitumor activity against normal cells (fibroblasts) at 500 ug/disk in disk diffusion assay; Value ranges from 0-100. Format: functional.
Test [29] is described as follows: Ratio of antiviral activity of HIV-1to the ratio of cytotoxicity of MT-2 (EC50/CC50) against cytopathic effect inhibition assay; 1/10. Format: functional.
Test [30] can be described thus: Antiviral activity of HCMV (Towne)in HFF cells by plaque reduction assay.
A short description of test [31]: Ratio of antiviral activity of HSV-2 to the ratio of cytotoxicity of Vero (EC50/CC50) against cytopathic effect inhibition assay in CEM cells; 40/91. It counts as functional.
Test [32] can be described thus: Ratio of antiviral activity of VZV to the ratio of cytotoxicity of HFF (EC50/CC50) against cytopathic effect inhibition assay; 5.0/111. It counts as functional.
A short description of test [33]: Ratio of antiviral activity of HSV-2 to the ratio of cytotoxicity of HFF (EC50/CC50) against cytopathic effect inhibition assay; >184/>184. Format: functional.
Test [34] is described as follows: Antiviral activity against HCMV (AD 169) in HFF cells assessed by cytopathic effect inhibition assay; 5.2/90.
The nature of test [35]: Ratio of antiviral activity of HSV-1 to the ratio of cytotoxicity of HFF (EC50/CC50) against cytopathic effect inhibition assay; >184/>184. It counts as functional.

A value given as a limit tells only on which side of the number the result lay.

Regarding `Nc1ncnc2c1ncn2/C=C1/CC1CO` (stereo unspecified), the Ratio was 59 in [1]; 2.5 in test [4]; 26 in test [5]; 80 in test [7]; 28 in test [8]; more than 92 in test [10]. The concentration for a half-maximal effect (EC50) is 1000 nM in test [2]; 3200 nM in [3]; 750 nM in test [6]; 2000 nM in test [9]; 2100 nM in test [11].
Take `COC(=O)C(C)NP(=O)(OCC1C/C1=C/n1cnc2c(N)ncnc21)Oc1ccccc1` (stereo unspecified): the EC50 in test [12] was determined as 140 nM; in [14], 3 nM; in [17] it was 1300 nM; in test [22], 1000 nM. In addition, the Ratio in test [13] is listed as 0.01; in [15] it was more than 1; in [16], 1.1; in test [18] it was less than 0.07; in [20] it was 7.6; in [21], 2.5. In the test on HCT-15 [19], this compound registered an Activity of 200 ug disk-1.
Consider `COC(=O)C(Cc1c[nH]c2ccccc12)NP(=O)(O)OCC1C/C1=C/n1cnc2c(N)ncnc21` (stereo unspecified), for which the Activity with HCT-15 [23] is 300 zone units; in the test on L1210, 0 zone units; in test [28], 0 zone units. Also, the concentration for a half-maximal effect (EC50) in [24] is 490 nM; in test [27], more than 18000 nM; in test [30] it was 1500 nM; in [34], 5200 nM. Besides, the Ratio in test [25] was 31; in test [26], 15; in [29] it was 1; in [31], 40; in test [32], 5; in test [33], more than 184. Also, the Ratio in test [35] is on record as more than 184.

One may read the EC50 as the concentration needed to bring the measured effect to its halfway point.
